Data set [1] has as its system HBV capsids. Kind of data set: Particle gel assay of nucleocapsids in AML12HBV10 cells. In kind it is cell-based, Hepatitis B virus (HBV). Conditions: 2 days, FIG. 1 panel B. As to the method: (§1) FIG. 1. Antiviral mechanism of the compounds of the present invention. AML12HBV10 cells were left untreated (NT) or treated with the indicated concentrations of the compounds of the disclosure Compound 6 and Compound 19, respectively, for 2 days. Bay-4109 (3 µM) or AT-61 (25 µM) served as positive controls. (A) Intracellular viral RNA was determined by Northern blot hybridization. Ribosomal RNA served as a loading control. (B) The total amounts of nucleocapsids were determined by a particle gel assay. (C) Encapsidated pgRNA were extracted and measured by Northern blot. (D) Nucleocapsid-associated HBV DNA was quantified by alkaline-treatment of nucleocapsids on the membrane following the particle gel assay and hybridized with a HBV-specific riboprobe. (E) HBV DNA replication intermediates were extracted and determined by Southern blot hybridizations.
(§2) Procedures of viral capsids and nucleocapsid-associated DNA analysis: AML12HB10 cells were lysed by addition of 300 μl buffer containing 10 mM Tris-HCl (pH7.6), 100 mM NaCl, 1 mM EDTA and 0.1% NP-40 to each well of 12-well plate. Cell debries were removed by centrifugation at 5000 g for 10 minutes. Ten microliters of the clarified cell lysates were fractionated by electrophoresis through nondenaturing 1% agarose gels and transferred to a nitrocellulose filter by blotting with TNE buffer (10 mM Tris-HCl, pH7.6; 150 mM NaCl and 1 mM EDTA). HBV capsids were detected by probing the membrane with an antibody against HBV core protein (DAKO). […] To detect capsid associated HBV DNA, the membrane were treated with buffer containing 0.5N NaOH and 1.5 M NaCl for 5 minutes and followed by neutralization with buffer containing 1 M TRIS-HCl and 1.5M NaCl for 5 minutes. The viral DNA was detected by hybridization with a α-^32P-UTP (800 Ci/mmol, Perkin Elmer) labeled minus strand specific full-length HBV riboprobe (Xu et al.).

A short description of data set [2]: Cytotoxicity in AML12HBV10 cells (MTT assay). The conditions noted are these: mouse, concentration that reduces viability by 50%, serial dilution 50 μM to 0.39 μM. It counts as cell-based, murine. As to the method:
(§3) Determination of cytotoxicity of compounds of the disclosure in AML12HBV10 cells: To determine the cytotoxicity of the compounds, AML12HBV10 cells were seeded into 96-well plates at a density of 2×10^4 cells per well and cultured in DMEM/F12 media with 10% fetal bovine serum in the absence of tetracycline to allow pgRNA transcription and HBV DNA replication. One day after seeding, cells were left untreated or treated with a serial dilution of testing compounds, ranging from 50 μM to 0.39 μM, for 48 hours. The cell viability was measured by a MTT assay, following procedure provided by the manufacturer (Promega). The cytotoxicity of a compound was expressed as the concentration of compound that reduces the viability of the cells by 50% (CC50).
In general terms: Tetrazolium assays rely on reduction of a dye to a coloured formazan, in cell work by metabolically active cells.

Data set [3] relates to capsid-associated HBV DNA. Kind of data set: Capsid-associated HBV DNA and DNA replication intermediates in AML12HBV10 cells. Conditions: 2 days, FIG. 1 panels D and E. It counts as cell-based, Hepatitis B virus (HBV). As to the method: as §1, §2
To analyze the HBV DNA replication intermediates, cells were lysed by adding into each well of the 12-well plates 0.5 ml of lysis buffer containing 10 mM Tris-HCl (pH 8.0), 1 mM EDTA, 1% NP40 and 2% sucrose and incubating at 37° C. for 10 minutes. Cell debris and nuclei were removed by centrifugation and the supernatant was mixed with 130 μl of 35% polyethylene glycol (PEG) 8000 containing 1.5 M NaCl. After 1 hour incubation in ice, viral nucleocapsids were pelleted by centrifugation at 6,000×g for 5 minutes at 4° C., followed by 1 hour digestion at 37° C. in 400 μl of digestion buffer containing 0.5 mg/ml pronase (Calbiochem), 0.5% SDS, 150 mM NaCl, 25 mM Tris-HCl (pH 8.0) and 10 mM EDTA. The digestion mixture was extracted twice with phenol and DNA was precipitated with ethanol, dissolved in TE buffer (10 mM Tris-HCl, pH 8.0; 0.1 mM EDTA). […]

The subject of data set [4] is encapsidated pgRNA. In words: Encapsidated pgRNA by Northern blot in AML12HBV10 cells. In kind it is cell-based, Hepatitis B virus (HBV). Conditions: 2 days, FIG. 1 panel C. How it is done:
as §1
Determination of encapsidated pgRNA: AML12HBV10 cells were lysed by addition of 600 μl of lysis buffer (50 mM Tris-HCl [pH 7.5], 1 mM EDTA, 150 mM NaCl, 1% NP-40) into each well of 12-well plates. The nuclei were removed by centrifugation at 5,000 g for 10 minutes. One-half of the sample was mixed with 6 U of micrococcal nuclease (Pharmacia) and 15 μl of 100 mM CaCl2 and incubated for 15 minutes at 37° C. to digest free nucleic acids. The reaction was stopped with 6 μl of 0.5 M EDTA, and capsids were precipitated by adding 125 μl of 35% polyethylene glycol 8000 in 1.75 M NaCl to the reaction and incubating in ice for 30 minutes, followed by centrifugation at 6,000 g for 10 minutes at 4° C. Pellets were re-suspended in 50 μl of TNE buffer (10 mM Tris-HCl [pH 8], 100 mM NaCl, 1 mM EDTA). pgRNA was extracted by the addition of 1 ml of Trizol reagent. The encapsidated pgRNA were electrophoresed through a 2.2 M formaldehyde-1% agarose gel, transferred to a nylon membrane, and immobilized by UV cross-linking (Stratagene). Hybridization was performed with an alpha-^32P-UTP labeled riboprobe specific for plus strand of HBV genome.

In data set [5] the test system is HBV mRNA. Kind of data set: Intracellular viral RNA by Northern blot in AML12HBV10 cells. In kind it is cell-based, Hepatitis B virus (HBV). Conditions: 2 days, FIG. 1 panel A. How it is done: as §1
Procedure for analysis of HBV mRNA: Upon the completion of treatment, total cellular RNA was extracted with TRIzol reagents (Invitrogen). Five micrograms of total RNA was resolved in 1.5% agarose gel containing 2.2 M formadelhyde and transferred onto Hybond-XL membrane in 20×SSC buffer. The amounts of HBV mRNA were determined by Northern blot hybridization with an alpha-^32P-UTP labeled riboprobe specific for plus strand of HBV genome.

The test system of data set [6] is HBV replication in AML12HBV10 cells. In words: Antiviral efficacy in AML12HBV10 cells (HBV DNA dot-blot hybridization). It counts as cell-based, Hepatitis B virus (HBV). How it is done:
The HBV replication inhibitors of the present invention are capable of treating and preventing diseases associated with HBV infection.
The antiviral efficacy of the compounds of the disclosure, as presented in Table 1, were determined in AML12HBV10 cells. AML12HBV10 is an immortalized murine hepatocyte (AML12)-derived stable cell line that supports robust HBV replication in a tetracycline inducible manner (Xu et al.). The cells were seeded into 96 well plates at a density of 2×10^4 cells per well and cultured in DMEM/F12 media with 10% fetal bovine serum in the absence of tetracycline to allow pgRNA transcription and HBV DNA replication. One day after seeding, cells were left untreated or treated with a serial dilution of testing compounds, ranging from 50 μM to 0.39 μM, for 48 hours. Cells were then lysed by adding into each well of 100 μl lysis buffer containing 10 mM Tris-HCl (pH 7.6), 1 mM EDTA, 100 mM NaCl and 1% NP-40 and incubated at 37° C. for 30 minutes. Half amount (50 μl) of cell lysate from each well was combined with equal volume of denaturing solution containing 0.5N NaOH and 1.5M NaCl. After 5 minute incubation, 100 µl of neutralization solution (1M Tris-HCl, pH 7.4, 1.5M NaCl) was added into each well. The denatured cell lysates (totally 200 μl) were applied onto Nylon membrane using 96-well dot-blot manifold (Biorad). HBV DNA in the cell lysates were determined by dot-blot hybridization with alpha-^32P-UTP-labelled riboprobe specific for HBV minus strand DNA. The antiviral efficacy of a compound of the disclosure was expressed as the concentration that reduces the amount of HBV DNA by 50% (EC50).

The test system of data set [7] is AML12HBV10 cells. Kind of data set: Cytotoxicity in AML12HBV10 cells (MTT assay). In kind it is cell-based, murine. Conditions: concentration that reduces viability by 50%, 48 hours, serial dilution 50 μM to 0.39 μM. How it is done:
as §3

Data set [8] deals with HBV replication in HepDES19 cells. In words: Antiviral activity in HepDES19 cells (core-associated HBV DNA, Southern blot). Conditions: concentration that reduces core-associated HBV DNA by 50%; 6 days; serial dilution 10 μM to 0.018 μM. In kind it is cell-based, Hepatitis B virus (HBV). From the text: Determination of antiviral activity of compounds of the disclosure, as presented in Table 1, in human hepatoma-derived cell lines: To further confirm the antiviral activity of the compounds of the disclosure against HBV in human hepatocyte-derived cells, HepDES19 cells, a human hepatoma cell line supporting HBV replication in a tetracycline inducible manner (Guo et al., 2007), seeded into 12-well plates at a density of 5×10^5 cells per well and cultured in DMEM/F12 media with 10% fetal bovine serum and 1 μg/ml tetracycline. Two days after seeding, the cells were mock-treated or treated with a serial dilution of compounds of the disclosure, ranging from 10 μM to 0.018 μM, for 6 days in the absence of tetracycline. Upon the completion of treatment, cells were lysed by adding into each well of the 12-well plates 0.5 ml of lysis buffer containing 10 mM Tris-HCl (pH 8.0), 1 mM EDTA, 1% NP40 and 2% sucrose and incubating at 37° C. for 10 minutes. Cell debris and nuclei were removed by centrifugation and the supernatant was mixed with 130 μl of 35% polyethylene glycol (PEG) 8000 containing 1.5 M NaCl. After 1 hour incubation in ice, viral nucleocapsids were pelleted by centrifugation at 6,000×g for 5 min at 4° C., followed by 1 hour digestion at 37° C. in 400 μl of digestion buffer containing 0.5 mg/ml pronase (Calbiochem), 0.5% SDS, 150 mM NaCl, 25 mM Tris-HCl (pH 8.0) and 10 mM EDTA. The digestion mixture was extracted twice with phenol and DNA was precipitated with ethanol, dissolved in TE buffer (10 mM Tris-HCl, pH 8.0; 0.1 mM EDTA). One half of the DNA sample from each well was resolved by electrophoresis into a 1.5% agarose gel. The gel was then subjected to denaturation in a solution containing 0.5 M NaOH and 1.5 M NaCl, followed by neutralization in a buffer containing 1 M Tris-HCl (pH7.4) and 1.5 M NaCl. DNA was then blotted onto Hybond-XL membrane (GE Health care) in 20×SSC buffer. The amounts of cytoplasmic HBV core-associated HBV DNA were determined by Southern blot hybridization and the antiviral efficacy of a compound was expressed as its concentration that reduce the amount of HBV DNA by 50% (EC50) or 90% (EC90).

SMILES strings stand for the structures. Where two headings read alike, the source gives them in different places. Bounds are passed on as bounds.

Regarding `O=C(Nc1cccc(Cl)c1)c1cccc2c1OCCO2` [Entry 19], the capsid formation entry in data set [1] is “did not significantly affect”. For the same compound, in data set [2], the CC50 at 48 h was above 50 µM. Moreover, the “capsid-associated HBV DNA / DNA synthesis” value in data set [3] is “reduced encapsidated pgRNA and capsid-associated HBV DNA in a dose-dependent manner”. Also, in data set [4], the “level of encapsidated pgRNA” value was “dose-dependently reduced”. The “amount of viral mRNA” value in data set [5] was “did not affect”. Further, the EC50 in data set [6] (Hepatitis B virus, AML12HBV10, 48 h, read-out: AML12HBV10 EC50, concentration that reduces the amount of HBV DNA by 50%, serial dilution 50 μM to 0.39 μM) is below 0.4 µM.
In turn, `O=C(Nc1ccccc1)c1scc2c1OCCO2` [Entry 10] displayed a CC50 in data set [7] above 50 µM. The EC50 in data set [8] was 8.45 µM; in data set [6] (read-out: AML12HBV10 EC50, concentration that reduces the amount of HBV DNA by 50%, 48 hours, serial dilution 50 μM to 0.39 μM), 4.48 µM.
Regarding `O=C(N/C(C(=O)N1CCCCC1)=C(/Cl)c1ccccc1)c1ccccc1` [AT-61, reference compound], in data set [1], the capsid formation entry was “did not affect”. In addition, the “capsid-associated HBV DNA / DNA synthesis” value in data set [3] is “dose-dependently reduced”. In data set [4], the “level of encapsidated pgRNA” value is “dose-dependently reduced”.
Consider `COC(=O)C1=C(C)NC(c2ncc(F)cc2F)=N[C@H]1c1ccc(F)cc1Cl` [Bay41-4109, reference compound], for which, in data set [1], the capsid formation entry is “completely abolished”. For the same compound, the “capsid-associated HBV DNA / DNA synthesis” value in data set [3] is “completely abolished”. In data set [4], the “level of encapsidated pgRNA” value is recorded as “completely abolished”.

The CC50 is the concentration that lowers cell viability or growth by half. A low value points to harm at low concentration.

The values above are taken from US20190092720A1, “FUNCTIONALIZED BENZAMIDE DERIVATIVES AS ANTIVIRAL AGENTS AGAINST HBV INFECTION” (BARUCH S. BLUMBERG INSTITUTE, priority 2012, published 2019).
